For 78 molecules, viability results are on record in PMC12040169 (PLOS Biology, 2025).

What is called viability is a read-out of living cells in per cent, often relative to untreated cells.

This data set in a line: in vitro. Particulars: human, hela cells, % viability.
For the molecule `Cc1cc(C)cc(N(CC(=O)Nc2ccc(C)c(Cl)c2)S(=O)(=O)c2ccccc2)c1` [CBK264109], the viability at 28.5 h, 10 µM is 98.9%. As for `Cc1cccnc1C1(O)CCN(C(=O)NCc2ccccc2)CC1` [CBK282293], the viability at 28.5 h, 10 µM was 88%.

For `CC1(C)CC(NC(=O)COc2ccc([N+](=O)[O-])cc2)CC(C)(C)N1` [CBK266806], the viability at 28.5 h, 10 µM was found to be 98%. For the molecule `O=C(O)COc1ccccc1/C=N\N1CCN(c2ccccn2)CC1` [CBK262916], the viability at 28.5 h, 10 µM worked out at 95.9%. Then `Cc1ncsc1CCOc1cc(N2CCCC2)ncn1` [CBK115895], with 85.5%; and `O=C(Nc1ccccc1-c1nc2ccccc2[nH]1)c1ccc(S(=O)(=O)N2CCCC2)cc1` [CBK263252], with 88.5%. For the molecule `CCOCc1ccc(C(=O)N2CCNC(=O)C2Cc2ccc(-c3cccs3)cc2)cc1` (stereo not drawn) [CBK285811], the viability at 28.5 h, 10 µM turned out to be 97.3%. To `Cc1cc(CNC(=O)COc2ccc(C#N)cc2)c2ccccc2n1` [CBK270129] belongs 87.6%. As for `O=C(O)C[C@@H]1CCN(C(=O)C2CCCCC2)C[C@@H]1CCN1CCCCC1` [CBK288781], the viability at 28.5 h, 10 µM was determined as 90.1%. Then `O=C(Nc1ccc(Cl)cc1)Nc1cc(S(=O)(=O)N2CCCC2)ccc1Cl` [CBK266122], with 98%. Then `COC(=O)COc1ccc2cccc(-n3cnnn3)c2c1` [CBK270173], with 84.7%; and `COc1ccc2c(c1)c(=O)oc1cc(OCC(=O)N3CCc4ccccc4C3)ccc12` [CBK266346], with 110%. Then `CCN(C)C(=O)c1cn2cc(-c3cc(C)oc3C)n(C)c(=O)c2n1` [CBK307494], with 94.9%; and `O=C(O)/C(=N\c1cccc2ccccc12)c1ccccc1` [CBK262224], with 75.7%; and `O=P(O)(COc1ccccc1)COc1ccccc1` [CBK261620], with 88.8%.

Take `CCn1c(N2CCC(C(=O)NC(C)C)CC2)nc2ccccc21` [CBK283982]: the viability at 28.5 h, 10 µM amounted to 83.8%. In the case of `Cc1ccc(S(=O)(=O)N2CCC(C(=O)NC3(C(=O)O)CCCCC3)CC2)cc1` [CBK295644], the viability at 28.5 h, 10 µM was determined as 109%. Turning to `Cn1nc(-c2ccc(F)cc2)cc1[C@H]1CN2CC[C@H]1C[C@@H]2CNS(C)(=O)=O` [CBK289109], the viability at 28.5 h, 10 µM is 98.8%. For the molecule `CCN(CC)CCNc1cc(C)nc2c1C(=O)C(=O)C=C2N1CCCCC1` [CBK265049], the viability at 28.5 h, 10 µM came to 89.5%.

For the molecule `FC(F)(F)c1cccc(CSc2cc(N3CCCC3)ncn2)c1` [CBK107184], the viability at 28.5 h, 10 µM was 91.1%. To `COc1ccc(C(=O)N2CCC3(CCN(C(=O)Cc4cc(C)no4)C3)C2)cc1OC` (stereo not drawn) [CBK131784] belongs 106%; to `CCN(Cc1nc(-c2ccccc2)no1)C(=O)c1ccoc1C` [CBK270229], 89.3%; to `Cc1nc2cc(C(=O)NCC(C)(C)N3CCCCC3)ccc2n1C` [CBK281862], 86.4%. Regarding `Cc1cc(=O)[nH]c(SCCC(=O)O)n1` [CBK268242], the viability at 28.5 h, 10 µM worked out at 106%. With `CSCCCNC(=O)c1cnn2c(C)c(Cc3ccccc3C)c(C)nc12` [CBK162028], the viability at 28.5 h, 10 µM was found to be 96.7%. Consider `Cc1nc2c(c(=O)[nH]1)CC[C@@H]1CN(C(=O)Cc3cccc(F)c3)C[C@H]21` [CBK284413], for which the viability at 28.5 h, 10 µM worked out at 80.4%.

Turning to `CC(C)(C)NC(=O)COc1ccc(CNCc2ccccn2)cc1` [CBK268420C], the viability at 28.5 h, 10 µM was determined as 95.5%. Take `CC(=O)N1CCC2(CC1)NC(=O)N(c1ccc(C(=O)O)cc1)N2` [CBK286758]: the viability at 28.5 h, 10 µM was determined as 103%. For the molecule `CN1C(=O)[C@@H](OC(=O)c2cccnc2)C[C@H]1c1ccc(F)cc1` [CBK283649], the viability at 28.5 h, 10 µM turned out to be 104%. In the case of `O=C(C1=C(O)C(=O)N(CCCn2ccnc2)C1c1ccncc1)c1ccc(F)cc1` (stereo not drawn) [CBK264601], the viability at 28.5 h, 10 µM worked out at 93.7%. Then `CCCCCC(=O)Nc1ccc(C(=O)Cn2nc(C(=O)O)c3ccccc3c2=O)cc1` [CBK295628], with 104%; and `O=C(CSc1n[nH]c(=O)n1C1CC1)NCCCSc1ccccc1` [CBK295620], with 104%. In the case of `CC(C)c1ccc(S(=O)(=O)N2CC3CC2CO3)cc1` (stereo not drawn) [CBK050999], the viability at 28.5 h, 10 µM worked out at 97.3%.

For the molecule `O=C(O)c1cccc(S(=O)(=O)Nc2nc3ccccc3s2)c1` [CBK161138], the viability at 28.5 h, 10 µM was 102%. Regarding `Cc1nc(=O)c(-c2ccccc2)c(C)n1CCCCCC(=O)O` [CBK287060], the viability at 28.5 h, 10 µM amounted to 113%.

Turning to `CCN(CC)C(=O)CN1CCC(Oc2nccnc2OCc2cc(C)on2)CC1` [CBK082959T], the viability at 28.5 h, 10 µM was 102%. Turning to `O=C(O)c1cc(NC(=O)c2ccc(Oc3ccc([N+](=O)[O-])cc3)cc2)cc(C(=O)O)c1` [CBK261188], the viability at 28.5 h, 10 µM worked out at 88.6%. Then `Cc1c(C(=O)N2CCC(c3c(C(=O)NC(C)C)sc4ccccc34)C2)[nH]c2ccccc12` (stereo not drawn) [CBK285872], with 84.8%; and `CCOC(=O)N1CCC(n2c(=O)[nH]c3ccccc32)CC1` [CBK149867], with 79.6%. Then `Nc1nnc(CSCc2ccc(Cl)cc2Cl)s1` [CBK263471], with 100%; and `O=C(Cc1cccc(F)c1)N1CCC(O)(c2cccnc2F)CC1` [CBK284362], with 90.5%; and `CC(C)(C)c1ccc(-c2cc3ncccc3nc2O)cc1` [CBK081302], with 97.1%. Then `O=C(O)CCc1ccc(S(=O)(=O)Nc2ccccc2Cc2ccccc2)cc1` [CBK295616], with 99.6%; and `CN(C)CCN(C)c1nc(-c2ccc(C(=O)O)cc2)cn2ccnc12` [CBK037880], with 96.7%; and `CC(C)(C)/N=C1/SCC(C)(/C=N\O)S1` (stereo not drawn) [CBK009726], with 98.7%. Consider `O=C(c1c(F)cccc1F)N1CCN(c2ncccn2)CC1` [CBK144517], for which the viability at 28.5 h, 10 µM was 89.3%.

For the molecule `O=C(Cc1ccc(F)cc1)N1CCn2c(nnc2C2CC2)C1` [CBK283688], the viability at 28.5 h, 10 µM was 113%. Regarding `O=C(O)C1CCCN1S(=O)(=O)c1ccc(Cl)cc1` (stereo not drawn) [CBK261249], the viability at 28.5 h, 10 µM stood at 88.1%. Then `O=S1(=O)N=C(c2c(O)nc3ccccc3c2O)Nc2ccccc21` [CBK019929], with 90.7%. To `COc1ccc(S(=O)(=O)N2CCCC(C(=O)NCc3ccc4c(c3)OCO4)C2)cc1Cl` (stereo not drawn) [CBK268230] belongs 89.1%; to `COc1cc(OC)cc(C(=O)N2CCC3(CC2)CC(=O)c2cc(C)ccc2O3)c1` [CBK167804], 94.6%.

With `COCCNc1nc(-c2ccc([N+](=O)[O-])cc2)nc2ccccc12` [CBK264819], the viability at 28.5 h, 10 µM was determined as 109%. To `CCOc1ccccc1C1C=C(C(=O)O)Nc2c(C(=O)Nc3ccccc3)cnn21` (stereo not drawn) [CBK287253] belongs 93.7%; to `Cc1cc(C(=O)N2C[C@H]3CC[C@](O)(c4ccc(F)cc4)[C@H]3C2)on1` [CBK284354], 92.4%. To `CCC(NC(=O)Nc1ccc(N2CCOCC2)nc1)c1cnn(CC)c1` (stereo not drawn) [CBK305172] belongs 90.6%; to `Cc1c(NC(=O)CSc2nnc(-c3cccc([N+](=O)[O-])c3)n2C)c(=O)n(-c2ccccc2)n1C` [CBK266757], 95.4%. Take `O=C(NCc1nnc(-c2cccs2)o1)c1cccc(F)c1F` [CBK284634]: the viability at 28.5 h, 10 µM is 91.1%.

As to `N=C(N)NCC(=O)N(CCc1cc(C(F)(F)F)cc(C(F)(F)F)c1)c1cccc2ccccc12` [CBK001122T], the viability at 28.5 h, 10 µM was 105%.

Turning to `O=C(c1ccncc1)N1CCc2cc(-c3csc(C4CC4)n3)ccc21` [CBK288618], the viability at 28.5 h, 10 µM came out at 94.5%. Consider `OCc1ccc(CN2C[C@H](O)C[C@H]2c2nc(-c3ccc(F)cc3)no2)o1` [CBK288848], for which the viability at 28.5 h, 10 µM amounted to 106%. Consider `CN1CCN(c2nc(-c3ccoc3)cn3ccnc23)CC1` [CBK066645], for which the viability at 28.5 h, 10 µM came to 97.1%.

With `O=C1COc2ccccc2C/C=C/CC2(CCN(C(=O)c3cnccn3)CC2)C(=O)NCCN1` [CBK291997], the viability at 28.5 h, 10 µM was 106%. For `CCCCN(C)c1c(C)nc2c(Oc3ncccn3)cccn12` [CBK147190], the viability at 28.5 h, 10 µM was determined as 90.9%. To `O=C(Nc1ncc(-c2ccccc2)s1)c1cccc([N+](=O)[O-])c1` [CBK157055] belongs 92.7%. Then `O=C1CC(SCc2nc3ccccc3[nH]2)C(=O)N1c1cccc(Cl)c1` (stereo not drawn) [CBK266731], with 94.5%; and `O=C(Cc1c[nH]c2ccccc12)N1CCC2(CCN(C(=O)c3cccnc3)C2)C1` (stereo not drawn) [CBK131453], with 80.6%. To `Cn1cccc1C(=O)N[C@H]1C[C@H]2C(=O)Nc3ccc(/C=C/c4ccccc4)cc3C(=O)N2C1` [CBK289367] belongs 86.7%.

Consider `Cc1ccc(S(=O)(=O)NCc2ccc(-c3nn(C)cc3-c3ccncc3C)cc2)cc1` [CBK285632], for which the viability at 28.5 h, 10 µM was 89.2%.

On to `N#CC1=C(N)n2c(s/c(=C\c3ccncc3)c2=O)=C(C#N)C1c1ccncc1` (stereo not drawn) [CBK262563], for which the viability at 28.5 h, 10 µM is 96%.

For the molecule `COc1ccc(/C=C/C(C)=C\C(=O)O)c(OC)c1` [CBK262237N], the viability at 28.5 h, 10 µM came to 94.8%. To `O=C(NCC1CCCO1)c1ccc(NC(=O)C2CC=CCC2C(=O)O)cc1` (stereo not drawn) [CBK266335] belongs 95%. To `COc1cccc2ncn(C(C)c3nc(C)sc3C)c(=O)c12` (stereo not drawn) [CBK306570] belongs 109%. To `O=C(NC(Cc1ccccc1)C(=O)O)c1ccc(Cl)cc1` (stereo not drawn) [CBK264677] belongs 96.1%; to `O=C(C1CC1)N1CCC(c2nnc(-c3ccsc3)o2)CC1` [CBK283376], 91.6%.

For `Cc1ccc(S(=O)(=O)N2CCOCC2)cc1C(=O)NCCc1ccccc1` [CBK269658], the viability at 28.5 h, 10 µM amounted to 99%. `Cc1ccc(S(=O)(=O)NCCOc2ccccc2)c(C)c1NS(C)(=O)=O` [CBK268210]: the viability at 28.5 h, 10 µM amounted to 92.9%. To `CCOc1cccc(N2C(=O)CC(N3CCN(c4ccccn4)CC3)C2=O)c1` (stereo not drawn) [CBK262829] belongs 105%. Take `CC(=O)N1CCC(C(=O)NC(=O)NCc2ccc(F)cc2)CC1` [CBK034834]: the viability at 28.5 h, 10 µM was 107%.
